Paper PMC11247486, “Improving the In Vivo Stability of [^52Mn]Mn(II) Complexes with 18-Membered Macrocyclic Chelators for PET Imaging” (Journal of Medicinal Chemistry, 2024)

Legend:
[1] = 1H NMR relaxometry (relaxivity as a function of pH); format: physicochemical; conditions: around neutral pH, 61 MHz and 25 °C
Source text: The studies reported by Branco assumed the formation of a protonated [Mn(HL)]^3+ species for the Mn-PYAN complex characterized by protonation constant log KMnLH = 5.19 (KMnLH = [MnHL]/[MnL] × [H^+]).[42] However, our pH-potentiometric data could be fitted very well without considering the formation of protonated species or hydroxo-complexes. In order to confirm that the equilibrium model used to fit the pH-potentiometric data was correct, we measured the relaxivity (r1p) of aqueous solutions of the complexes as a function of pH (Figure 4). Relaxivity measures the ability of a paramagnetic solute to enhance the longitudinal relaxation rate of solvent water molecules, normalized for a 1 mM concentration of the paramagnetic ion.[45] The r1p values measured around neutral pH values (0.83 and 1.40 mM^–1 s^–1 at 61 MHz and 25 °C for Mn-PYAN and Mn-CHXPYAN, respectively) are typical of complexes that lack one or more water molecules in the inner coordination sphere, the observed relaxivity being the result of the outer-sphere contribution.[46] Relaxivity is fairly constant in the pH range of 6–9 but increases below pH ∼ 6 due to complex dissociation, reaching a relaxivity of 6.00 mM^–1 s^–1 at pH 3, 61 MHz, and 25 °C that is characteristic of the [Mn(H2O)6]^2+ complex.[47] The relaxivity profile matches the speciation diagrams calculated using the equilibrium constants obtained by pH potentiometry very well, which provides support for the equilibrium model used to fit the potentiometric data. It is worth noting that complex dissociation takes place at a lower pH for Mn-CHXPYAN than for Mn-PYAN, as expected, considering their pMn values.
The relaxivity values were calculated from the longitudinal relaxation time of H2O protons (T1) measured at 61 MHz on a Stelar relaxometer connected to a Bruker WP80 NMR electromagnet adapted to variable-field measurements (15–80 MHz proton Larmor frequency). […] The longitudinal relaxation time was measured with the “inversion recovery” method (180°–τ–90°) by using 12 different τ values with a typical 90° pulse width of 10.7 μs, 4 scans. […]

[2] = Cyclic voltammetry of the Mn(II) complexes; format: physicochemical; conditions: for peak-to-peak separation (ΔEp): 2 mM complex, pH ∼ 6.5
Description: Cyclic voltammetry experiments were performed with Mn-PYAN and Mn-CHXPYAN, using aqueous solutions with a complex concentration of 2 mM, containing 0.15 M NaCl as the supporting electrolyte (pH ∼ 6.5). The cyclic voltammograms obtained (Figure 3) show well-defined anodic and cathodic waves due to the Mn(II)/Mn(III) pair, which are characteristic of reversible or quasi-reversible processes. At the lowest scan rate (20 mV/s), the peak-to-peak separation (ΔEp) is slightly smaller for Mn-CHXPYAN than for Mn-PYAN, with values of 73 and 80 mV, respectively. When increasing the scan rate, ΔEp increases slightly, with values of 85 and 102 mV, respectively, at the highest scan rate (500 mV/s). This situation is characteristic of electrochemically quasi-reversible processes, although for Mn-CHXPYAN, the values of ΔEp are lower and present less variation with the scan rate.
This is likely related to ligand field effects due to the more symmetrical octahedral coordination around the metal ion in Mn-CHXPYAN than in Mn-PYAN, as evidenced by the shape measures mentioned above (Table S1, Supporting Information).[37] Indeed, high-spin Mn(III) complexes often display Jahn–Teller distorted octahedral coordination, while high-spin Mn(II) complexes lack any LFSE.[38],[39] The E1/2 values of 652 and 567 mV vs Ag/AgCl (3 M KCl) correspond to 862 and 777 mV vs NHE for Mn-PYAN and Mn-CHXPYAN, respectively.[40]
Cyclic voltammetry measurements were performed with a three-electrode configuration on an Autolab PGSTAT302 M potentiostat-galvanostat. A glassy-carbon disk (Metrohm 61204600) was used as the working electrode. The surface of this electrode was polished with α-Al2O3 (0.3 μm) and washed with distilled water before every measurement. The reference electrode used was a Ag/AgCl reference electrode filled with 3 M KCl (Metrohm 6.0726.100). A Pt wire was used as the counter electrode. The complex solutions (2 mM) containing […] were deoxygenated by bubbling nitrogen before each measurement.

[3] = scan rate 500 mV/s, 0.15 M NaCl
[4] = vs Ag/AgCl (3 M KCl), 0.15 M NaCl

| SMILES | relaxivity r1p [1] [mM^–1 s^–1] | peak-to-peak separation (ΔEp) ([2]; scan rate 20 mV/s, 0.15 M NaCl) [mV] | peak-to-peak separation (ΔEp) [2, 3] [mV] | half wave potential (E1/2) [2, 4] [mV] | half wave potential (E1/2) ([2]; vs NHE) [mV] |
| --- | --- | --- | --- | --- | --- |
| [Mn+2].c1cc2nc(c1)CN[C@@H]1CCCC[C@H]1NCc1cccc(n1)CN[C@@H]1CCCC[C@H]1NC2 [Mn-CHXPYAN] | 1.40 | 73 | 85 | 567 | 777 |
| [Mn+2].c1cc2nc(c1)CNCCNCc1cccc(n1)CNCCNC2 [Mn-PYAN] | 0.83 | 80 | 102 | 652 | 862 |
